In patent US20240216395A1, “19-NOR C3,3-DISUBSTITUTED C21 -N-PYRAZOLYL STEROID FOR USE IN TREATING MAJOR DEPRESSIVE DISORDER AND […]” (priority 2021, published 2024):
Several values for one entry are separate records, joined by “and”; a condition that tells them apart may be missing. Equal entries are not always repeated.

System: adult subjects with major depressive disorder (MDD)
Assay: Phase 3 placebo-controlled study of Compound (1) 50 mg QD for 14 days in MDD (NCT04442490): efficacy scales
Assay type: in vivo, human
Settings: for Day 15 HAMD-17 improvement maintained on average: Day 15 HAMD-17 responders; for Day 15 MADRS improvement maintained on average: Day 15 MADRS responders
Text: Title of Study: A Phase 3, Multicenter, Double-Blind, Randomized, Placebo-Controlled Study Evaluating the Efficacy of Compound (1) in the Treatment of Adult Subjects with Major Depressive Disorder
This was a randomized, double-blind, parallel-group, placebo-controlled study in subjects with MDD. The diagnosis of MDD was made according to Structured Clinical Interview for Diagnostic and DSM-5 Clinical Trial Version (SCID-5-CT) performed by a qualified healthcare professional.
Eligible subjects were stratified based on use of antidepressant treatment (current/stable or not treated/withdrawn ≥60 days) and randomized within each stratum to one of 2 treatment groups (Compound (1)—50 mg or matching placebo) in a 1:1 ratio. Subjects self-administered study drug once daily at approximately 8 PM with fat-containing food (e.g., within 1 hour of an evening meal which contains fat or with a fat-containing snack), on an outpatient basis, for 14 days. Subjects returned to the study center during the treatment and follow-up periods as outlined in Table 1.
Subjects self-administered Compound (1) (50 mg or 40 mg [for dose adjustments only as permitted]) or matching placebo orally once daily at approximately 8 PM with food for 14 days. The 50-mg and 40-mg doses was administered as 2 capsules per dose (50 mg, administered as one 30 mg-capsule and one 20-mg capsule, and 40-mg, administered as two 20-mg capsules). Placebo was also administered as 2 capsules to maintain the blind.
The estimand for the primary efficacy analysis was the mean change from baseline in HAM-D total score at Day 15. This was analyzed using a mixed effects model for repeated measures (MMRM); the model included treatment, baseline HAM-D total score, stratification factor, assessment time point, and time point-by-treatment as explanatory variables. All explanatory variables were treated as fixed effects. All post-baseline time points were included in the model. The main comparison was between Compound (1) and placebo at the 15-day time point. Model-based point estimates (e.g., least squares [LS] means, 95% confidence intervals, and p-values) were reported where applicable. An unstructured covariance structure was used to model the within-subject errors. If there was a convergence issue with the unstructured covariance model, Toeplitz, or Autoregressive (1) [AR(1)] covariance structure was used, following this sequence until convergence was achieved. […] When the covariance structure was not UN, the sandwich estimator for the variance covariance matrix was derived, using the EMPIRICAL option in the PROC MIXED statement in SAS.
Similar to those methods described above for the primary endpoint, an MMRM was used for the analysis of the change from baseline in other time points in HAM-D total score, MADRS total score, HAM-A total score, SF-36v2 score, PHQ-9 score, and selected individual items and/or subscale scores in HAM-D for change from baseline.
Generalized estimating equation (GEE) methods were used for the analysis of HAM-D Response (defined as ≥50% reduction from baseline in HAM-D total score) and HAM-D Remission (defined as HAM-D total score of ≤7.0). GEE models included terms for treatment, baseline score, stratification factor, assessment time point, and time point-by-treatment as explanatory variables. The comparison of interest was the difference between Compound (1) and matching placebo at the 15-day time point. Model-based point estimates (e.g., odds ratios), 95% confidence intervals, and p-values were reported.
A GEE method was also used for the analysis of CGI-I Response including terms for treatment, baseline CGI-S score, stratification factor, assessment time point, and time point-by-treatment as explanatory variables.
Compound (1) is an investigational two-week, once-daily oral drug for MDD that represents a potential new class of drug for the management of this common but serious mental health disorder. […]

C[C@@]1(O)CC[C@H]2[C@H](CC[C@@H]3[C@@H]2CC[C@]2(C)[C@@H](C(=O)Cn4cc(C#N)cn4)CC[C@@H]32)C1 [Compound (1), 1-(2-((3R,5R,8R,9R,10S,13S,14S,17S)-3-hydroxy-3,13-dimethylhexadecahydro-1H-cyclopenta[a]phenanthren-17-yl)-2-oxoethyl)-1H-pyrazole-4-carbonitrile]
HAMD-17 Remission odds ratio (95% CI) vs placebo (ADT=No, Day 3): 2.4 (0.91, 6.58) | HAMD-17 Response odds ratio (95% CI) vs placebo (ADT=No, Day 3): 2.3 (1.36, 3.79) | HAMD-17 Remission odds ratio (95% CI) vs placebo (ADT=No, Day 8): 2.1 (1.14, 3.91) | HAMD-17 Response odds ratio (95% CI) vs placebo (ADT=No, Day 8): 1.7 (1.08, 2.58) | HAMD-17 Remission odds ratio (95% CI) vs placebo (ADT=No, Day 12): 1.5 (0.92, 2.44) | HAMD-17 Response odds ratio (95% CI) vs placebo (ADT=No, Day 12): 1.5 (1.02, 2.35) | HAMD-17 Remission odds ratio (95% CI) vs placebo (ADT=No, Day 15): 1.1 (0.70, 1.76) | HAMD-17 Response (ADT=No, Day 15): 55.5 n/N (%) | HAMD-17 Response odds ratio (95% CI) vs placebo (ADT=No, Day 15): 1.4 (0.92, 2.12) | HAMD-17 Remission odds ratio (95% CI) vs placebo (ADT=No, Day 21): 1.0 (0.62, 1.65) | HAMD-17 Response odds ratio (95% CI) vs placebo (ADT=No, Day 21): 1.1 (0.73, 1.70) | HAMD-17 Remission odds ratio (95% CI) vs placebo (ADT=No, Day 28): 0.86 (0.52, 1.41) | HAMD-17 Response odds ratio (95% CI) vs placebo (ADT=No, Day 28): 1.0 (0.65, 1.55) | HAMD-17 Remission odds ratio (95% CI) vs placebo (ADT=No, Day 35): 1.1 (0.66, 1.74) | HAMD-17 Response odds ratio (95% CI) vs placebo (ADT=No, Day 35): 1.1 (0.72, 1.70) | HAMD-17 Remission odds ratio (95% CI) vs placebo (ADT=No, Day 42): 1.0 (0.61, 1.55) | HAMD-17 Response odds ratio (95% CI) vs placebo (ADT=No, Day 42): 1.2 (0.81, 1.90) | HAMD-17 Response odds ratio (95% CI) vs placebo (ADT=Yes, Day 3): 1.9 (0.87, 3.98) | HAMD-17 Response odds ratio (95% CI) vs placebo (ADT=Yes, Day 8): 1.9 (1.01, 3.73) | HAMD-17 Response odds ratio (95% CI) vs placebo (ADT=Yes, Day 12): 1.9 (0.98, 3.58) | HAMD-17 Response (ADT=Yes, Day 15): 57.3 n/N (%) | HAMD-17 Response odds ratio (95% CI) vs placebo (ADT=Yes, Day 15): 1.4 (0.74, 2.71) | HAMD-17 Response odds ratio (95% CI) vs placebo (ADT=Yes, Day 21): 1.8 (0.95, 3.53) | HAMD-17 Response odds ratio (95% CI) vs placebo (ADT=Yes, Day 28): 1.4 (0.72, 2.64) | HAMD-17 Response odds ratio (95% CI) vs placebo (ADT=Yes, Day 35): 1.4 (0.76, 2.75) | HAMD-17 Response odds ratio (95% CI) vs placebo (ADT=Yes, Day 42): 1.7 (0.91, 3.34) | CGI-Improvement Response odds ratio vs placebo (Day 3): 1.8 (0.0032) | CGI-Severity LS mean TRT diff vs placebo (Day 3): −0.4 (<0.0001) | HAMD-17 total score LS mean (SE) CFB (Day 3): −9.8 (0.38) | HAMD-17 total score LS mean TRT diff vs placebo (Day 3): −3.0 (<0.0001) points | CGI-Improvement Response odds ratio vs placebo (Day 8): 1.9 (0.0005) | CGI-Severity LS mean TRT diff vs placebo (Day 8): −0.4 (0.0001) | HAM-A total score LS mean (SE) CFB (Day 8): −8.7 (0.40) | HAMD-17 total score LS mean (SE) CFB (Day 8): −12.0 (0.45) | MADRS total score LSM (SE) CFB (Day 8): −14.6 (0.69) | CGI-Improvement Response odds ratio vs placebo (Day 12): 1.6 (0.0101) | CGI-Severity LS mean TRT diff vs placebo (Day 12): −0.3 (0.0014) | CGI-Improvement Response odds ratio vs placebo (Day 15): 1.5 (0.0191) | HAM-A total score LS mean (SE) CFB (Day 15): −10.4 (0.43) | HAMD-17 Anxiety subscale LSM difference vs placebo (Day 15): −0.9 points | HAMD-17 Bech-6 subscale LSM difference vs placebo (Day 15): −3.2 points | HAMD-17 Core Depression subscale LSM difference vs placebo (Day 15): −2.0 points | HAMD-17 Maier subscale LSM difference vs placebo (Day 15): −3.0 points | HAMD-17 early insomnia item mean reduction from baseline (Day 15): −1.0 | HAMD-17 late insomnia item mean reduction from baseline (Day 15): −0.8 | HAMD-17 middle insomnia item mean reduction from baseline (Day 15): −1.2 | HAMD-17 total score LS mean (SE) CFB (Day 15): −14.1 (0.51) | MADRS Response (≥50% reduction) rate (Day 15): 51.6% | MADRS total score LS mean TRT diff vs placebo (Day 15): −2.4 points and −2.4 (0.0238) points | SF-36v2 Bodily Pain (BP) CFB (Day 15): 5.26 | SF-36v2 General Health (GH) CFB (Day 15): 4.51 | SF-36v2 Mental Health (MH) CFB (Day 15): 14.45 | SF-36v2 Physical-Functioning (PF) CFB (Day 15): 3.41 | SF-36v2 Role-Emotional (RE) CFB (Day 15): 14.19 | SF-36v2 Role-Physical (RP) CFB (Day 15): 3.45 | SF-36v2 Social-Functioning (SF) CFB (Day 15): 12.89 | SF-36v2 Vitality (V) CFB (Day 15): 13.12 | SF-36v2 least-squares mean vitality score increase versus placebo (Day 15): 3.1 | HAMD-17 total score LS mean TRT diff vs placebo (Day 15 (primary endpoint)): −1.7 points and −1.7 (0.0141) points | HAMD-17 LSM treatment difference vs placebo, subgroup (Day 15, ADT use No (monotherapy)): −1.98 | HAMD-17 LSM treatment difference vs placebo, subgroup (Day 15, ADT use Yes (combination)): −1.21 | HAMD-17 LSM treatment difference vs placebo, subgroup (Day 15, age 18-24 years): −1.67 | HAMD-17 LSM treatment difference vs placebo, subgroup (Day 15, age 25-50 years): −1.96 | HAMD-17 LSM treatment difference vs placebo, subgroup (Day 15, age 51-64 years): −1.18 | HAMD-17 LSM treatment difference vs placebo, subgroup (Day 15, baseline BMI 18.5-24.9 kg/m^2): −1.02 | HAMD-17 LSM treatment difference vs placebo, subgroup (Day 15, baseline BMI 25-29.9 kg/m^2): −3.94 | HAMD-17 LSM treatment difference vs placebo, subgroup (Day 15, baseline BMI ≥30 kg/m^2): −1.04 | HAMD-17 LSM treatment difference vs placebo, subgroup (Day 15, baseline HAMD-17TS <26): −1.25 | HAMD-17 LSM treatment difference vs placebo, subgroup (Day 15, baseline HAMD-17TS ≥26): −1.91 | HAMD-17 LSM treatment difference vs placebo, subgroup (Day 15, female): −1.58 | HAMD-17 LSM treatment difference vs placebo, subgroup (Day 15, male): −1.81 | HAMD-17 LSM treatment difference vs placebo, subgroup (Day 15, race Black): −2.20 | HAMD-17 LSM treatment difference vs placebo, subgroup (Day 15, race Other): −4.22 | HAMD-17 LSM treatment difference vs placebo, subgroup (Day 15, race White): −1.47 | Day 15 HAMD-17 improvement maintained on average (Day 28): 81.7% | Day 15 HAMD-17 improvement maintained on average (Day 42): 86.1% | Day 15 MADRS improvement maintained on average (Day 28): 85.2% | Day 15 MADRS improvement maintained on average (Day 42): 87.6% | Patients retaining ≥65% of Day 15 HAMD-17 improvement (Day 21): 81.0% | MADRS total score LS mean TRT diff vs placebo (Day 28): −1.5 | MADRS total score LSM (SE) CFB (Day 28): −16.4 (0.80) | HAMD-17 total score LS mean (SE) CFB (Day 42): −13.5 (0.55) | HAMD-17 total score LS mean TRT diff vs placebo (Day 42): −0.9 | MADRS total score LS mean TRT diff vs placebo (Day 42): −1.3 | MADRS total score LSM (SE) CFB (Day 42): −17.5 (0.83) | Patients retaining ≥65% of Day 15 HAMD-17 improvement (Day 42): 75.4% and 74.9% | HAMD-17 Remission (HAMD-17≤7) rate (overall, Day 3): 7.6% | HAMD-17 Remission odds ratio vs placebo (overall, Day 3): 3.57 | HAMD-17 Response (≥50% reduction) rate (overall, Day 3): 29.3% | HAMD-17 Response odds ratio vs placebo (overall, Day 3): 2.14 | HAMD-17 Response (≥50% reduction) rate (overall, Day 15): 56.0% | HAMD-17 Response odds ratio vs placebo (overall, Day 15): 1.40
